Test results reported in the NIST ThermoML archive (doi:10.1021/acs.jced.8b01135).

Assay: xn = mol fraction of the nth substance listed
Details: 102 kPa, Liquid; for speed of sound: Frequency=3 MHz, Single path-length method; for mass density: Vibrating tube method; for viscosity: Concentric cylinders viscometry

CCCC1CCCCC1 [1-cyclohexylpropane] + CCCCCCCCCCCC
Details	mass density [kg/m3]	speed of sound [m/s]	viscosity [mPa·s]
288.15 K, x1 = 0.1007	755.55	1317.5	–
288.15 K, x1 = 0.2001	758.92	1317.8	–
288.15 K, x1 = 0.3001	762.54	1318.2	–
288.15 K, x1 = 0.4011	766.49	1319.3	–
288.15 K, x1 = 0.5	770.63	1320.1	–
288.15 K, x1 = 0.6004	775.15	1320.9	–
288.15 K, x1 = 0.6995	780	1322.1	–
288.15 K, x1 = 0.7998	785.31	1323.8	–
288.15 K, x1 = 0.8997	791.13	1326.1	–
288.15 K, x1 = 1	797.42	1328.6	–
293.15 K, x1 = 0.1007	751.91	1297.9	1.44
293.15 K, x1 = 0.2001	755.26	1298.2	1.39
293.15 K, x1 = 0.3001	758.87	1298.6	1.34
293.15 K, x1 = 0.4011	762.8	1299.8	1.28
293.15 K, x1 = 0.5	766.92	1300.2	1.23
293.15 K, x1 = 0.6004	771.42	1300.8	1.18
293.15 K, x1 = 0.6995	776.23	1301.9	1.13
293.15 K, x1 = 0.7998	781.51	1303.4	1.08
293.15 K, x1 = 0.8997	787.31	1305.3	1.03
293.15 K, x1 = 1	793.53	1307.7	0.981
298.15 K, x1 = 0.1007	748.27	1278.4	–
298.15 K, x1 = 0.2001	751.61	1278.6	–
298.15 K, x1 = 0.3001	755.2	1279	–
298.15 K, x1 = 0.4011	759.11	1280.3	–
298.15 K, x1 = 0.5	763.2	1280.8	–
298.15 K, x1 = 0.6004	767.68	1280.8	–
298.15 K, x1 = 0.6995	772.46	1281.8	–
298.15 K, x1 = 0.7998	777.71	1283.1	–
298.15 K, x1 = 0.8997	783.46	1284.7	–
298.15 K, x1 = 1	789.63	1287.1	–
303.15 K, x1 = 0.1007	744.62	1259.1	1.23
303.15 K, x1 = 0.2001	747.95	1259.2	1.18
303.15 K, x1 = 0.3001	751.53	1259.5	1.14
303.15 K, x1 = 0.4011	755.41	1260.9	1.1
303.15 K, x1 = 0.5	759.48	1261.1	1.06
303.15 K, x1 = 0.6004	763.93	1261	1.02
303.15 K, x1 = 0.6995	768.68	1261.8	0.977
303.15 K, x1 = 0.7998	773.89	1262.9	0.936
303.15 K, x1 = 0.8997	779.6	1264.3	0.897
303.15 K, x1 = 1	785.72	1266.6	0.856
313.15 K, x1 = 0.1007	737.32	1221.1	1.05
313.15 K, x1 = 0.2001	740.61	1221.1	1.01
313.15 K, x1 = 0.3001	744.15	1221.3	0.979
313.15 K, x1 = 0.4011	747.98	1222.3	0.946
313.15 K, x1 = 0.5	752.01	1222.6	0.914
313.15 K, x1 = 0.6004	756.42	1222.1	0.882
313.15 K, x1 = 0.6995	761.11	1222.6	0.85
313.15 K, x1 = 0.7998	766.24	1223.3	0.818
313.15 K, x1 = 0.8997	771.86	1224.3	0.783
313.15 K, x1 = 1	777.88	1226.2	0.75
323.15 K, x1 = 0.1007	729.98	1183.9	0.909
323.15 K, x1 = 0.2001	733.24	1183.7	0.882
323.15 K, x1 = 0.3001	736.75	1183.8	0.856
323.15 K, x1 = 0.4011	740.52	1184.5	0.831
323.15 K, x1 = 0.5	744.5	1184.6	0.802
323.15 K, x1 = 0.6004	748.86	1183.9	0.776
323.15 K, x1 = 0.6995	753.49	1184.1	0.75
323.15 K, x1 = 0.7998	758.55	1184.6	0.721
323.15 K, x1 = 0.8997	764.09	1185.1	0.694
323.15 K, x1 = 1	770	1186.5	0.668
333.15 K, x1 = 0.1007	722.61	1147.6	0.792
333.15 K, x1 = 0.2001	725.82	1147.3	0.769
333.15 K, x1 = 0.3001	729.3	1147.3	0.75
333.15 K, x1 = 0.4011	733.02	1147.5	0.729
333.15 K, x1 = 0.5	736.95	1147.3	0.707
333.15 K, x1 = 0.6004	741.26	1146.7	0.685
333.15 K, x1 = 0.6995	745.82	1146.7	0.663
333.15 K, x1 = 0.7998	750.81	1146.8	0.64
333.15 K, x1 = 0.8997	756.27	1146.9	0.618
333.15 K, x1 = 1	762.09	1147.7	0.594
